Experiments:
[1] = tested on: control sera (pooled serum of ten healthy LUMC hospital workers; commercial negative donor pooled serum from the Dutch bloodbank); format: binding, human
[2] = tested on: antibodies in sera from SARS patients (sera 1a, 1b, 2, 6, 37, 62, London, SARS-yellow, SARS-green); format: binding, human; set-up: Binding of serum 6 to linear peptides of protein X1 of SARS-CoV Urbani / Binding of serum 37 to linear peptides of protein X1 of SARS-CoV Urbani / Binding of serum 6 to looped/cyclic peptide (PEPSCAN-ELISA) / Binding of serum 37 to looped/cyclic peptide (PEPSCAN-ELISA) / Binding of serum 37 to looped/cyclic peptides of protein X1 of SARS-CoV Urbani / Binding of serum 6 to linear peptides of protein X2 / Binding of serum 37 to linear peptides of protein X2 / Binding of serum 37 to looped/cyclic peptides of protein X2 of SARS-CoV Urbani / Binding of serum 6 to linear peptides of protein M of SARS-CoV Urbani / Binding of serum 37 to linear peptides of protein M of SARS-CoV Urbani / Binding of serum 6 to looped/cyclic peptides of protein M of SARS-CoV Urbani / Binding of serum 37 to looped/cyclic peptides of protein M of SARS-CoV Urbani / Binding of serum 6 to linear peptides of protein X3 of SARS-CoV Urbani / Binding of serum 37 to linear peptides of protein X3 of SARS-CoV Urbani / Binding of serum 37 to looped/cyclic peptides of protein X3 of SARS-CoV Urbani / Binding of serum 6 to linear peptides of protein X4 of SARS-CoV Urbani / Binding of serum 37 to linear peptides of protein X4 of SARS-CoV Urbani / Binding of serum 37 to looped/cyclic peptides of protein X4 of SARS-CoV Urbani / Binding of serum 6 to linear peptides of protein X5 of SARS-CoV Urbani / Binding of serum 37 to linear peptides of protein X5 of SARS-CoV Urbani / Binding of serum 37 to looped/cyclic peptides of protein X5 of SARS-CoV Urbani / Binding of serum 6 to linear peptides of protein N of SARS-CoV Urbani / Binding of serum 37 to linear peptides of protein N of SARS-CoV Urbani / Binding of serum 6 to linear peptide (PEPSCAN-ELISA) / Binding of serum 1a to looped/cyclic peptides of protein N of SARS-CoV Urbani / Binding of serum 1b to looped/cyclic peptides of protein N of SARS-CoV Urbani / Binding of serum 2 to looped/cyclic peptides of protein N of SARS-CoV Urbani / Binding of serum 6 to looped/cyclic peptides of protein N of SARS-CoV Urbani / Binding of serum 37 to looped/cyclic peptides of protein N of SARS-CoV Urbani / Binding of serum 62 to looped/cyclic peptides of protein N of SARS-CoV Urbani / Binding of serum London to looped/cyclic peptides of protein N of SARS-CoV Urbani / Binding of serum SARS-green to looped/cyclic peptides of protein N of SARS-CoV Urbani: unit not given here
[3] = tested on: rabbit serum obtained by immunizing a rabbit with the SARS-CoV strain Frankfurt 1; format: binding; set-up: Binding of a rabbit serum to linear peptides / Binding of a rabbit serum to looped peptides / Rabbit serum linear peptides / Rabbit serum looped peptides / Binding of a rabbit serum to linear peptides of protein N of SARS-CoV Urbani (Rabbit serum linear peptides) / Binding of a rabbit serum to looped/cyclic peptides of protein N of SARS-CoV Urbani (Rabbit serum looped peptides): unit not given here

For VDFQVTIAEILIIIM, the “Binding of Control Serum Blood-Bank to Looped peptides of the protein X3 of SARS-CoV Urbani” value [1] was 0.6, the “Binding of Control serum Blood-bank to linear peptides of the protein X3 of SARS-CoV Urbani” value [1] was 0.8 and the “Binding of Control serum LUMC to linear peptides of the protein X3 of SARS-CoV Urbani” value [1] was 0.8. The “Binding of Control serum LUMC to looped peptides of the protein X3 of SARS-CoV Urbani” value [1] was 0.8, the “Binding of serum 1a to linear peptides of protein X3 of SARS-CoV Urbani” value [2] was 0.8 and the “Binding of serum 1a to looped/cyclic peptides of protein X3 of SARS-CoV Urbani” value [2] was 0.7. For the same sequence, the “Binding of serum 1b to linear peptides of protein X3 of SARS-CoV Urbani” value [2] was 0.5, the “Binding of serum 1b to looped/cyclic peptides of protein X3 of SARS-CoV Urbani” value [2] was 0.4 and the “Binding of serum 2 to linear peptides of protein X3 of SARS-CoV Urbani” value [2] was 0.7. For the same sequence, the “Binding of serum 2 to looped/cyclic peptides of protein X3 of SARS-CoV Urbani” value [2] was 0.6, the “Binding of serum 6 to linear peptides of protein X3 of SARS-CoV Urbani” value [2] was 0.5 and the “Binding of serum 6 to looped/cyclic peptides of protein X3 of SARS-CoV Urbani” value [2] was 0.3. For the same sequence, the “Binding of serum 37 to linear peptides of protein X3 of SARS-CoV Urbani” value [2] was 0.5, the “Binding of serum 37 to looped/cyclic peptides of protein X3 of SARS-CoV Urbani” value [2] was 0.6 and the “Binding of serum 62 to linear peptides of protein X3 of SARS-CoV Urbani” value [2] was 0.6. For the same sequence, the “Binding of serum 62 to looped/cyclic peptides of protein X3 of SARS-CoV Urbani” value [2] was 0.6, the “Binding of serum London to linear peptides of protein X3 of SARS-CoV Urbani” value [2] was 0.6 and the “Binding of serum London to looped/cyclic peptides of protein X3 of SARS-CoV Urbani” value [2] was 0.2. For the same sequence, the “Binding of serum SARS-green to linear peptides of protein X3 of SARS-CoV Urbani” value [2] was 0.4, the “Binding of serum SARS-green to looped/cyclic peptides of protein X3 of SARS-CoV Urbani” value [2] was 0.3 and the “Binding of serum SARS-yellow to linear peptides of protein X3 of SARS-CoV Urbani” value [2] was 0.6. For the same sequence, the “Binding of serum SARS-yellow to looped/cyclic peptides of protein X3 of SARS-CoV Urbani” value [2] was 0.8, the “Rabbit serum linear peptides” value [3] was 0.3 and the “Rabbit serum looped peptides” value [3] was 0.3.
In the case of VNSVLLFLAFVVFLL, the “Binding of Control Serum Blood-Bank to Looped peptides” value [1] is reported as 0.5, the “Binding of Control serum Blood-bank to linear peptides” value [1] is reported as 0.5 and the “Binding of Control serum LUMC to linear peptides” value [1] is reported as 0.4. For the same sequence, the “Binding of Control serum LUMC to looped peptides” value [1] was 0.7, the “Binding of serum 1a to linear peptides of protein E of SARS-CoV Urbani” value [2] was 0.9 and the “Binding of serum 1a to looped/cyclic peptides of protein E of SARS-CoV Urbani” value [2] was 0.6. For the same sequence, the “Binding of serum 1b to linear peptides of protein E of SARS-CoV Urbani” value [2] was 0.1, the “Binding of serum 1b to looped/cyclic peptides of protein E of SARS-CoV Urbani” value [2] was 0.4 and the “Binding of serum 2 to linear peptides of protein E of SARS-CoV Urbani” value [2] was 1.1. For the same sequence, the “Binding of serum 2 to looped/cyclic peptides of protein E of SARS-CoV Urbani” value [2] was 0.5, the “Binding of serum 6 to linear peptides of protein E of SARS-CoV Urbani” value [2] was 0.6 and the “Binding of serum 6 to looped/cyclic peptides of protein E of SARS-CoV Urbani” value [2] was 0.3. The “Binding of serum 37 to linear peptides of protein E of SARS-CoV Urbani” value [2] was 0.5, the “Binding of serum 37 to looped/cyclic peptides of protein E of SARS-CoV Urbani” value [2] was 0.6 and the “Binding of serum 62 to linear peptides of protein E of SARS-CoV Urbani” value [2] was 0.2. The “Binding of serum 62 to looped/cyclic peptides of protein E of SARS-CoV Urbani” value [2] was 0.7, the “Binding of serum London to linear peptides of protein E of SARS-CoV Urbani” value [2] was 1.4 and the “Binding of serum London to looped/cyclic peptides of protein E of SARS-CoV Urbani” value [2] was 0.3. For the same sequence, the “Binding of serum SARS-green to linear peptides of protein E of SARS-CoV Urbani” value [2] was 0.7, the “Binding of serum SARS-green to looped/cyclic peptides of protein E of SARS-CoV Urbani” value [2] was 0.4 and the “Binding of serum SARS-yellow to linear peptides of protein E of SARS-CoV Urbani” value [2] was 0.6. For the same sequence, the “Binding of serum SARS-yellow to looped/cyclic peptides of protein E of SARS-CoV Urbani” value [2] was 0.6, the “Binding of a rabbit serum to linear peptides” value [3] was 0.2 and the “Binding of a rabbit serum to looped peptides” value [3] was 0.4.
VTLAILTALRLCAYC was tested, and the “Binding of Control Serum Blood-Bank to Looped peptides” value [1] was 0.9, the “Binding of Control serum Blood-bank to linear peptides” value [1] was 0.5 and the “Binding of Control serum LUMC to linear peptides” value [1] was 0.6. For the same sequence, the “Binding of Control serum LUMC to looped peptides” value [1] was 0.8, the “Binding of serum 1a to linear peptides of protein E of SARS-CoV Urbani” value [2] was 0.6 and the “Binding of serum 1a to looped/cyclic peptides of protein E of SARS-CoV Urbani” value [2] was 0.7. The “Binding of serum 1b to linear peptides of protein E of SARS-CoV Urbani” value [2] was 0.5, the “Binding of serum 1b to looped/cyclic peptides of protein E of SARS-CoV Urbani” value [2] was 0.5 and the “Binding of serum 2 to linear peptides of protein E of SARS-CoV Urbani” value [2] was 0.6. For the same sequence, the “Binding of serum 2 to looped/cyclic peptides of protein E of SARS-CoV Urbani” value [2] was 0.9, the “Binding of serum 6 to linear peptides of protein E of SARS-CoV Urbani” value [2] was 0.3 and the “Binding of serum 6 to looped/cyclic peptides of protein E of SARS-CoV Urbani” value [2] was 0.6. For the same sequence, the “Binding of serum 37 to linear peptides of protein E of SARS-CoV Urbani” value [2] was 0.4, the “Binding of serum 37 to looped/cyclic peptides of protein E of SARS-CoV Urbani” value [2] was 0.6 and the “Binding of serum 62 to linear peptides of protein E of SARS-CoV Urbani” value [2] was 0.4. The “Binding of serum 62 to looped/cyclic peptides of protein E of SARS-CoV Urbani” value [2] was 0.8, the “Binding of serum London to linear peptides of protein E of SARS-CoV Urbani” value [2] was 0.5 and the “Binding of serum London to looped/cyclic peptides of protein E of SARS-CoV Urbani” value [2] was 0.5. For the same sequence, the “Binding of serum SARS-green to linear peptides of protein E of SARS-CoV Urbani” value [2] was 0.5, the “Binding of serum SARS-green to looped/cyclic peptides of protein E of SARS-CoV Urbani” value [2] was 0.5 and the “Binding of serum SARS-yellow to linear peptides of protein E of SARS-CoV Urbani” value [2] was 0.2. For the same sequence, the “Binding of serum SARS-yellow to looped/cyclic peptides of protein E of SARS-CoV Urbani” value [2] was 0.7, the “Binding of a rabbit serum to linear peptides” value [3] was 0.1 and the “Binding of a rabbit serum to looped peptides” value [3] was 0.4.
With VVFLLVTLAILTALR the “Binding of Control Serum Blood-Bank to Looped peptides” value [1] was 0.6, the “Binding of Control serum Blood-bank to linear peptides” value [1] was 0.6 and the “Binding of Control serum LUMC to linear peptides” value [1] was 0.4. The “Binding of Control serum LUMC to looped peptides” value [1] was 0.6, the “Binding of serum 1a to linear peptides of protein E of SARS-CoV Urbani” value [2] was 0.7 and the “Binding of serum 1a to looped/cyclic peptides of protein E of SARS-CoV Urbani” value [2] was 0.5. For the same sequence, the “Binding of serum 1b to linear peptides of protein E of SARS-CoV Urbani” value [2] was 0.4, the “Binding of serum 1b to looped/cyclic peptides of protein E of SARS-CoV Urbani” value [2] was 0.3 and the “Binding of serum 2 to linear peptides of protein E of SARS-CoV Urbani” value [2] was 0.4. For the same sequence, the “Binding of serum 2 to looped/cyclic peptides of protein E of SARS-CoV Urbani” value [2] was 0.5, the “Binding of serum 6 to linear peptides of protein E of SARS-CoV Urbani” value [2] was 0.6 and the “Binding of serum 6 to looped/cyclic peptides of protein E of SARS-CoV Urbani” value [2] was 0.5. For the same sequence, the “Binding of serum 37 to linear peptides of protein E of SARS-CoV Urbani” value [2] was 0.6, the “Binding of serum 37 to looped/cyclic peptides of protein E of SARS-CoV Urbani” value [2] was 0.4 and the “Binding of serum 62 to linear peptides of protein E of SARS-CoV Urbani” value [2] was 0.6. For the same sequence, the “Binding of serum 62 to looped/cyclic peptides of protein E of SARS-CoV Urbani” value [2] was 0.7, the “Binding of serum London to linear peptides of protein E of SARS-CoV Urbani” value [2] was 0.5 and the “Binding of serum London to looped/cyclic peptides of protein E of SARS-CoV Urbani” value [2] was 0.5. The “Binding of serum SARS-green to linear peptides of protein E of SARS-CoV Urbani” value [2] was 0.5, the “Binding of serum SARS-green to looped/cyclic peptides of protein E of SARS-CoV Urbani” value [2] was 0.2 and the “Binding of serum SARS-yellow to linear peptides of protein E of SARS-CoV Urbani” value [2] was 0.1. For the same sequence, the “Binding of serum SARS-yellow to looped/cyclic peptides of protein E of SARS-CoV Urbani” value [2] was 0.5, the “Binding of a rabbit serum to linear peptides” value [3] was 0.5 and the “Binding of a rabbit serum to looped peptides” value [3] was 0.2.

From patent publication US20070128217A1 (priority 2003, published 2007)
